This passage reports mortality, survival rate and mortality rate results from US20060281724A1, “Methods for Treating Shock” (priority 2005, published 2006).

In experiment [1] the test system is rats subjected to 40% loss of total blood volume. As to the kind of experiment: Rat model of volume hemorrhagic trauma (blood loss model). The class given is in vivo. As for the experimental part: Twenty-four rats were subjected to 40% loss of total blood volume, consisting of catheterization and laparotomy (soft tissue injury) to mimic trauma and hemorrhage. One hour after onset of hemorrhage, the animals were resuscitated with crystalloid fluid and packed red blood cells (PRBCs). Twelve animals received one subcutaneous injection of AET in a methyl cellulose suspension at a concentration of 40 mg/kg body weight in 100 μl/kg body weight, one hour after initiation of hemorrhage, but prior to fluid resuscitation. Twelve animals received subcutaneous methyl cellulose control injection at 100 μl/kg body weight.

The test system of experiment [2] is rats hemorrhaged down to a mean arterial pressure of about 35-40 mmHg. As to the kind of experiment: Rat model of blood pressure hemorrhagic trauma (pressure reduction model). The class given is in vivo. The note with it: two days after induction of hemorrhage; AET 40 mg/kg subcutaneous in methyl cellulose suspension, one hour after initiation of hemorrhage, prior to fluid resuscitation; untreated/control group 75%. How it is done: In a second model of hemorrhagic trauma, 15 rats were hemorrhaged as in Example 1 down to a mean arterial pressure of about 35-40 mmHg and resuscitated one hour from onset of hemorrhage with crystalloid and PRBCs. Seven […] subcutaneous injection of AET in a methyl cellulose suspension at a concentration of 40 mg/kg body weight in 100 μl/kg body weight, one hour after initiation of hemorrhage, but prior to fluid resuscitation. Eight animals received subcutaneous methyl cellulose control injection at 100 μl/kg body weight. Two days after induction of hemorrhage, mortality in the untreated group (n=8) was 75%.

Consider `C[C@]12CCC(O)CC1=CC(O)[C@@H]1[C@@H]2CC[C@]2(C)C(O)CC[C@@H]12` (stereo partly drawn) [AET, trihydroxy-androst-5ene], for which, in experiment [1] (three days after hemorrhagic conditions that reduced total blood volume by 40%, FIG. 1), the mortality entry is on record as “zero”. For the same compound, the survival rate in experiment [1] (three days after induction of hemorrhage, AET 40 mg/kg subcutaneous in methyl cellulose suspension, one hour after initiation of hemorrhage, prior to fluid resuscitation, untreated group mortality 25%, P<0.04) turned out to be 100%. In experiment [2], this compound returned a mortality rate of 43%.
